Assay results published in ChEMBL document CHEMBL3120082, “Synthesis and in vitro anti-proliferative effects of 3-(hetero)aryl substituted 3-[(prop-2-ynyloxy)(thiophen-2-yl)methyl]pyridine derivatives on various cancer cell lines” (Bioorg Med Chem Lett, 2014).
Active and inactive are the calls of the source. The rule behind the calls is not given here.

Tests used:
[1] = Cytotoxicity against human HEK293 cells assessed as cell viability at 10 uM after 24 hrs by MTT assay; format: cell-based; conditions: read-out: GI
COLO 205 = test: Cytotoxicity against human COLO205 cells assessed as cell viability at 10 uM after 24 hrs by MTT assay; format: functional; conditions: for inhibition of growth at 10 µM: COLO 205, 24 h, read-out: GI
MCF7 [2] = test: Cytotoxicity against estrogen receptor-positive human MCF7 cells assessed as cell viability at 10 uM after 24 hrs by MTT assay; format: functional; conditions: for inhibition of growth at 10 µM: MCF7, 24 h, read-out: GI
HepG2 = test: Cytotoxicity against human HepG2 cells assessed as cell viability at 10 uM after 24 hrs by MTT assay; format: functional; conditions: for inhibition of growth at 10 µM: HepG2, 24 h, read-out: GI
MDA-MB-231 [3] = test: Cytotoxicity against estrogen receptor-negative human MDA-MB-231 cells assessed as cell viability at 10 uM after 24 hrs by MTT assay; format: functional; conditions: for inhibition of growth at 10 µM: MDA-MB-231, 24 h, read-out: GI
[4] = (§1) Cytotoxicity against human IMR32 cells assessed as cell viability at 10 uM after 24 hrs by MTT assay; format: functional; conditions: IMR-32, 24 h, read-out: GI
K562 = test: Cytotoxicity against human K562 cells assessed as cell viability at 10 uM after 24 hrs by MTT assay; format: functional; conditions: for inhibition of growth at 10 µM: K562, 24 h, read-out: GI
MDA-MB-231 [5] = test: Cytotoxicity against estrogen receptor-negative human MDA-MB-231 cells after 24 hrs by MTT assay; format: functional, cell-based; conditions: MDA-MB-231, 24 h
MCF7 [6] = test: Cytotoxicity against estrogen receptor-positive human MCF7 cells after 24 hrs by MTT assay; format: functional, cell-based; conditions: MCF7, 24 h
IMR-32 = test: as §1; format: functional

SMILES | inhibition at 24 h, 10 µM [1] [%] | inhibition of growth at 10 µM (COLO 205) [%] | inhibition of growth at 10 µM (MCF7 [2]) [%] | inhibition of growth at 10 µM (HepG2) [%] | inhibition of growth at 10 µM (MDA-MB-231 [3]) [%] | inhibition of growth at 10 µM [4] [%] | inhibition of growth at 10 µM (K562) [%] | IC50 (MDA-MB-231 [5]; read-out: IC50) [µM] | IC50 (MCF7 [6]) [µM] | IC50 (MDA-MB-231 [5]) [µM] | growth inhibition (GI) (COLO 205) | growth inhibition (GI) (MCF7 [2]) | growth inhibition (GI) (HepG2) | growth inhibition (GI) (MDA-MB-231 [3]) | growth inhibition (GI) (IMR-32) | growth inhibition (GI) (K562)
CCOC(=O)c1c[nH]nc1C#CCOC(c1cccs1)c1cccnc1Cl (stereo not given) | 0.4 | 45.8 | 33.8 | 34.3 | 35.3 | 30.9 | 54.8 | – | – | – | – | – | – | – | – | –
O=C1Nc2ccc(C#CCOC(c3cccs3)c3cccnc3Cl)cc2C1=O (stereo not given) | 0.8 | 49.3 | 71.9 | 44.8 | 72.3 | 58.4 | 61.1 | 0.99 | 1.05 | – | – | – | – | – | – | –
COc1cccc2c1C(=O)c1c(O)c3c(c(O)c1C2=O)C[C@@](O)(C(=O)CO)C[C@@H]3O[C@H]1C[C@H](N)[C@H](O)[C@H](C)O1 [DOXORUBICIN] | – | – | – | – | – | – | – | – | 0.44 | 0.65 | – | – | – | – | – | –
CCOC(=O)c1sc2c(c1C#CCOC(c1cccs1)c1cccnc1Cl)CCC2 (stereo not given) | -1.6 | 46 | 25 | 21.9 | 37.9 | 25.2 | 65.1 | – | – | – | – | – | – | – | – | –
O=C(O)c1ccccc1C#CCOC(c1cccs1)c1cccnc1Cl (stereo not given) | 2.7 | 34.7 | 35.9 | 33.1 | 47.9 | 38.1 | 40.2 | – | – | – | – | – | – | – | – | –
CCOC(=O)c1c(C#CCOC(c2cccs2)c2cccnc2Cl)sc2c1CCCC2 (stereo not given) | -0.9 | 32.1 | 31.8 | 29.5 | 46.4 | 22.5 | 53 | – | – | – | – | – | – | – | – | –
O=C(O)c1ccc(C#CCOC(c2cccs2)c2cccnc2Cl)cc1 (stereo not given) | 4.8 | 44 | 35.9 | 38.2 | 38.9 | 39.6 | 57.7 | – | – | – | – | – | – | – | – | –
Nc1ccccc1C#CCOC(c1cccs1)c1cccnc1Cl (stereo not given) | 3.2 | 37.8 | 69.3 | 36.2 | 73.3 | 47.6 | 43.8 | 0.95 | 1.29 | – | – | – | – | – | – | –
OC(c1cccs1)c1cccnc1Cl (stereo not given) | – | – | – | – | – | – | – | – | – | – | inactive | inactive | inactive | inactive | inactive | inactive
CCOC(=O)COC(c1cccs1)c1cccnc1Cl (stereo not given) | – | – | – | – | – | – | – | – | – | – | inactive | inactive | inactive | inactive | inactive | inactive
Clc1ncccc1C(OCC#Cc1ccc(I)cc1)c1cccs1 (stereo not given) | 0 | 39 | 45.6 | 54.2 | 52.2 | 60 | 48 | – | – | – | – | – | – | – | – | –
O=C(O)COC(c1cccs1)c1cccnc1Cl (stereo not given) | – | – | – | – | – | – | – | – | – | – | inactive | inactive | inactive | inactive | inactive | inactive
O=[N+]([O-])c1ccccc1C#CCOC(c1cccs1)c1cccnc1Cl (stereo not given) | 0.1 | 16.5 | 34.8 | 46.2 | 48 | 53.2 | 18.9 | – | – | – | – | – | – | – | – | –
COc1ccc(C#CCOC(c2cccs2)c2cccnc2Cl)cc1 (stereo not given) | -1.1 | 31.6 | 64.7 | 13.9 | 70.1 | 20.7 | 33.8 | 1.16 | 1.72 | – | – | – | – | – | – | –
Oc1ccccc1C#CCOC(c1cccs1)c1cccnc1Cl (stereo not given) | 6 | 28.5 | 67.7 | 13.6 | 70.8 | 34.4 | 40.6 | 1.1 | 1.51 | – | – | – | – | – | – | –
